Reference: ChEMBL document CHEMBL1128992, “A Non-peptidic photoactivatable antagonist for mapping the antagonist binding site of the tachykinin NK2 receptor” (Bioorg Med Chem Lett, 1996)

Target: T1, Substance-K receptor (Homo sapiens, UniProt P21452)
T1 sequence (P21452 whole entry): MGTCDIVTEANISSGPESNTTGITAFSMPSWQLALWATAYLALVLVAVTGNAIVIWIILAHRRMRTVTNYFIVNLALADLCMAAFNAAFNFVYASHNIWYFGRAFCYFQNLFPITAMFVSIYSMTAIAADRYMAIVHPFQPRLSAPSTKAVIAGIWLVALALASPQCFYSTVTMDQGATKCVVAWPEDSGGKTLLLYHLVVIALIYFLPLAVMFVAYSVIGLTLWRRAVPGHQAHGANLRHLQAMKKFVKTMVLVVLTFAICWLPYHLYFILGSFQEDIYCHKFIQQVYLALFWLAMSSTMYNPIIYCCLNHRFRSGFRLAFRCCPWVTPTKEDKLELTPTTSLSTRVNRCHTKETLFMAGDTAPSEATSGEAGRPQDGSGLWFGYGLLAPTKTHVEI
Assay: Binding affinity was determined against human NK2 receptor in CHO cells using [125I]neurokinin A as radioligand
Assay type: cell-based

Row | IC50 [nM] | Structure (SMILES)
1 | 0.8 | CC(=O)NC1(c2ccccc2)CCN(CC[C@H](CN(C)C(=O)c2ccccc2)c2ccc(Cl)c(Cl)c2)CC1 (racemic) [SAREDUTANT]
2 | 6.7 | CN(CC(CCN1CCC(O)(c2ccccc2)CC1)c1ccc(Cl)c(Cl)c1)C(=O)c1cccc(C2(C(F)(F)F)N=N2)c1 (racemic)
